# In PubChem BioAssay (NCI):
#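 How tested: cells in 96-well plates exposed to compound for 48 hours at five concentrations. GI50 marks 50% less growth. TGI denotes the concentration required for complete inhibition of growth.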
# Experiments:
# Assay in all cases: inhibition of tumour cell growth, NCI panel, 48 h
# KM12 colon = tested on: KM12 colon
# SR leukemia = tested on: SR leukemia
# NCI-H23 lung = tested on: NCI-H23 lung
# TK-10 renal = tested on: TK-10 renal
# HCC-2998 colon = tested on: HCC-2998 colon
# IGROV1 ovarian = tested on: IGROV1 ovarian
# RPMI-8226 leukemia = tested on: RPMI-8226 leukemia
# SK-MEL-5 melanoma = tested on: SK-MEL-5 melanoma
# SF-295 CNS = tested on: SF-295 CNS
# ACHN renal = tested on: ACHN renal
# NCI-H522 lung = tested on: NCI-H522 lung
# BT-549 breast = tested on: BT-549 breast
# CCRF-CEM leukemia = tested on: CCRF-CEM leukemia
# HCT-116 colon = tested on: HCT-116 colon
# T-47D breast = tested on: T-47D breast
# HOP-62 NSCLC = tested on: HOP-62 NSCLC
# U251 CNS = tested on: U251 CNS
# SK-OV-3 ovarian = tested on: SK-OV-3 ovarian
# SNB-19 CNS = tested on: SNB-19 CNS
# UACC-62 melanoma = tested on: UACC-62 melanoma
# SK-MEL-28 melanoma = tested on: SK-MEL-28 melanoma
# MCF7 breast = tested on: MCF7 breast
# EKVX NSCLC = tested on: EKVX NSCLC
# OVCAR-4 ovarian = tested on: OVCAR-4 ovarian
# 786-0 renal = tested on: 786-0 renal
# OVCAR-8 ovarian = tested on: OVCAR-8 ovarian
# HL-60(TB) leukemia = tested on: HL-60(TB) leukemia
# NCI-H460 lung = tested on: NCI-H460 lung
# NCI/ADR-RES ovarian = tested on: NCI/ADR-RES ovarian
# HOP-92 NSCLC = tested on: HOP-92 NSCLC
# SF-539 CNS = tested on: SF-539 CNS
# UACC-257 melanoma = tested on: UACC-257 melanoma
# CAKI-1 renal = tested on: CAKI-1 renal
# UO-31 renal = tested on: UO-31 renal
# K-562 leukemia = tested on: K-562 leukemia
# LOX IMVI melanoma = tested on: LOX IMVI melanoma
# SNB-75 CNS = tested on: SNB-75 CNS
# PC-3 prostate = tested on: PC-3 prostate
# A549 NSCLC = tested on: A549 NSCLC
# SF-268 CNS = tested on: SF-268 CNS
# SK-MEL-2 melanoma = tested on: SK-MEL-2 melanoma
# HCT-15 colon = tested on: HCT-15 colon
# SN12C renal = tested on: SN12C renal
# MDA-MB-231 breast = tested on: MDA-MB-231 breast
# MALME-3M melanoma = tested on: MALME-3M melanoma
# SW-620 colon = tested on: SW-620 colon
# A498 renal = tested on: A498 renal
# RXF 393 renal = tested on: RXF 393 renal
# OVCAR-3 ovarian = tested on: OVCAR-3 ovarian
# MOLT-4 leukemia = tested on: MOLT-4 leukemia
# HT29 colon = tested on: HT29 colon
# NCI-H226 lung = tested on: NCI-H226 lung
# OVCAR-5 ovarian = tested on: OVCAR-5 ovarian
smiles,measurement,setting,value
CCN1C(=O)N(CC)C2Nn3c(s/c(=C\c4ccccc4Br)c3=O)=NC21 (stereo not given),GI50,KM12 colon,0.501 µM
same,TGI,KM12 colon,6.13 µM
same,GI50,SR leukemia,0.573 µM
same,TGI,SR leukemia,8.3 µM
same,GI50,NCI-H23 lung,2.7 µM
same,TGI,NCI-H23 lung,> 100 µM
same,GI50,TK-10 renal,9.34 µM
same,TGI,TK-10 renal,> 100 µM
same,GI50,HCC-2998 colon,2.4 µM
same,GI50,IGROV1 ovarian,2.77 µM
same,TGI,IGROV1 ovarian,> 100 µM
same,GI50,RPMI-8226 leukemia,1.79 µM
same,TGI,RPMI-8226 leukemia,15.2 µM
same,GI50,SK-MEL-5 melanoma,1.71 µM
same,TGI,SK-MEL-5 melanoma,5.64 µM
same,GI50,SF-295 CNS,0.691 µM
same,TGI,SF-295 CNS,7.75 µM
same,GI50,ACHN renal,1.33 µM
same,TGI,ACHN renal,> 100 µM
same,GI50,NCI-H522 lung,1.26 µM
same,TGI,NCI-H522 lung,4.15 µM
same,GI50,BT-549 breast,3.2 µM
same,TGI,BT-549 breast,17.4 µM
same,GI50,CCRF-CEM leukemia,1.32 µM
same,TGI,CCRF-CEM leukemia,> 100 µM
same,GI50,HCT-116 colon,0.497 µM
same,TGI,HCT-116 colon,> 100 µM
same,GI50,T-47D breast,13.2 µM
same,TGI,T-47D breast,> 100 µM
same,GI50,HOP-62 NSCLC,2.81 µM
same,TGI,HOP-62 NSCLC,> 100 µM
same,GI50,U251 CNS,0.676 µM
same,TGI,U251 CNS,19.4 µM
same,GI50,SK-OV-3 ovarian,2.15 µM
same,TGI,SK-OV-3 ovarian,7.7 µM
same,GI50,SNB-19 CNS,3.18 µM
same,TGI,SNB-19 CNS,> 100 µM
same,GI50,UACC-62 melanoma,2.18 µM
same,TGI,UACC-62 melanoma,31.1 µM
same,GI50,SK-MEL-28 melanoma,2.23 µM
same,TGI,SK-MEL-28 melanoma,69.6 µM
same,GI50,MCF7 breast,1.78 µM
same,TGI,MCF7 breast,> 100 µM
same,GI50,EKVX NSCLC,2.3 µM
same,TGI,EKVX NSCLC,> 100 µM
same,GI50,OVCAR-4 ovarian,2.29 µM
same,TGI,OVCAR-4 ovarian,> 100 µM
same,GI50,786-0 renal,3.18 µM
same,TGI,786-0 renal,> 100 µM
same,GI50,OVCAR-8 ovarian,1.61 µM
same,TGI,OVCAR-8 ovarian,7.85 µM
same,GI50,HL-60(TB) leukemia,1.28 µM
same,TGI,HL-60(TB) leukemia,3.19 µM
same,GI50,NCI-H460 lung,0.804 µM
same,TGI,NCI-H460 lung,10.5 µM
same,GI50,NCI/ADR-RES ovarian,1.74 µM
same,TGI,NCI/ADR-RES ovarian,43.7 µM
same,GI50,HOP-92 NSCLC,4.14 µM
same,TGI,HOP-92 NSCLC,80.8 µM
same,GI50,SF-539 CNS,0.889 µM
same,TGI,SF-539 CNS,3.08 µM
same,GI50,UACC-257 melanoma,12.9 µM
same,TGI,UACC-257 melanoma,> 100 µM
same,GI50,CAKI-1 renal,1.75 µM
same,TGI,CAKI-1 renal,38.2 µM
same,GI50,UO-31 renal,2 µM
same,TGI,UO-31 renal,> 100 µM
same,GI50,K-562 leukemia,0.515 µM
same,TGI,K-562 leukemia,> 100 µM
same,GI50,LOX IMVI melanoma,2.43 µM
same,TGI,LOX IMVI melanoma,30.6 µM
same,GI50,SNB-75 CNS,0.797 µM
same,TGI,SNB-75 CNS,8.3 µM
same,GI50,PC-3 prostate,1.86 µM
same,TGI,PC-3 prostate,> 100 µM
same,GI50,A549 NSCLC,1.23 µM
same,TGI,A549 NSCLC,> 100 µM
same,GI50,SF-268 CNS,2.54 µM
same,TGI,SF-268 CNS,29 µM
same,GI50,SK-MEL-2 melanoma,3.55 µM
same,TGI,SK-MEL-2 melanoma,25.6 µM
same,GI50,HCT-15 colon,1.48 µM
same,TGI,HCT-15 colon,> 100 µM
same,GI50,SN12C renal,3.17 µM
same,TGI,SN12C renal,27.8 µM
same,GI50,MDA-MB-231 breast,1.89 µM
same,TGI,MDA-MB-231 breast,8.62 µM
same,GI50,MALME-3M melanoma,8.08 µM
same,TGI,MALME-3M melanoma,78.1 µM
same,GI50,SW-620 colon,1.27 µM
same,TGI,SW-620 colon,> 100 µM
same,GI50,A498 renal,0.886 µM
same,TGI,A498 renal,4.08 µM
same,GI50,RXF 393 renal,1.09 µM
same,TGI,RXF 393 renal,6.91 µM
same,GI50,OVCAR-3 ovarian,1.05 µM
same,TGI,OVCAR-3 ovarian,5.02 µM
same,GI50,MOLT-4 leukemia,2.28 µM
same,TGI,MOLT-4 leukemia,23.2 µM
same,GI50,HT29 colon,0.558 µM
same,TGI,HT29 colon,5.73 µM
same,GI50,NCI-H226 lung,6.31 µM
same,TGI,NCI-H226 lung,> 100 µM
same,GI50,OVCAR-5 ovarian,2.01 µM
same,TGI,OVCAR-5 ovarian,> 100 µM
